Measurements as given in patent US20130252930A1 (BIOMARIN PHARMACEUTICAL INC., priority 2010, published 2013).
Where two headings read alike, the source gives them in different places.

Columns and labels:
[1] = Rat liver microsome stability assay (Biological Example 8a); settings: liver microsomes, pH 7.4
[2] = target: T1, CYP17 (human testicular microsome) (Homo sapiens, UniProt P05093); assay: CYP17 enzymatic assay (% inhibition at 10 nM), version 1 (Biological Example 5); type: biochemical
T1 construct: using microsomal fraction from human testis (Celsis Cat #S00110) as the enzyme source; tissue Celsis S00110; host or cells: human testis microsomal fraction
T1 sequence (P05093 1-508): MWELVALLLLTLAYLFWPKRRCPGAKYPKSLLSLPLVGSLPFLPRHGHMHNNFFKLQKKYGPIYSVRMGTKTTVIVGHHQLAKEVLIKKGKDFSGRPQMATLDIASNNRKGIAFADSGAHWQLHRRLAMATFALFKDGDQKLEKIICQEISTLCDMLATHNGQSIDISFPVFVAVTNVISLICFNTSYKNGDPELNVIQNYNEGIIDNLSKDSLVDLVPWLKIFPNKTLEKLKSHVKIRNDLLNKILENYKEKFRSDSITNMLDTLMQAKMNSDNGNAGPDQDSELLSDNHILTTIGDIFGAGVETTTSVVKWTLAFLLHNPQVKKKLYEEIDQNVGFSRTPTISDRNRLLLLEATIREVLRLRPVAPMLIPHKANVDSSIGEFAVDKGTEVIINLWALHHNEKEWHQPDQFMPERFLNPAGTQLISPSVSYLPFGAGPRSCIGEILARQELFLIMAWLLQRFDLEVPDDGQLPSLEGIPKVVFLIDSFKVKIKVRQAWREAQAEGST

[3] = target: T1, CYP17 (human testicular microsome); assay: CYP17 enzymatic assay (IC50) (Biological Example 4); type: biochemical
[4] = Human liver microsome stability assay (Biological Example 8b); settings: liver microsomes, pH 7.4
[5] = tested on: rat Cyp11B enzyme (rat adrenal mitochondria); assay: CYP11B enzymatic assay (% inhibition at 100 nM) (Biological Example 9); type: biochemical; settings: for Biological Example No. 9: CYP11B percent inhibition at 100 nM: 100 nM compound, cortisol by ELISA; for CYP11B enzymatic assay % inhibition at 100 nM (Biological Example No. 9): compound at 100 nM
Outline: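 Sprague Dawley rat adrenal mitochondria were incubated with compound at 100 nM, 0.5 mM NADPH and 0.1 μM 11-deoxycortisol (pH 7.4 Tris buffer) for 60 min at 37 °C. Cortisol was measured by ELISA and corrected by subtracting the no-NADPH background. % inhibition is relative to the no-compound reaction.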

[6] = target: T2, Cyp21 enzyme (Human HEK 293-Cyp21 stable transfected cells) (Homo sapiens, UniProt P08686); assay: CYP21-HEK293 enzymatic assay (% inhibition at 100 nM) (Biological Example 10); type: cell-based; settings: HEK 293-Cyp21 cells
T2 construct: expressed in transfected cells
T2 sequence (P08686 1-495): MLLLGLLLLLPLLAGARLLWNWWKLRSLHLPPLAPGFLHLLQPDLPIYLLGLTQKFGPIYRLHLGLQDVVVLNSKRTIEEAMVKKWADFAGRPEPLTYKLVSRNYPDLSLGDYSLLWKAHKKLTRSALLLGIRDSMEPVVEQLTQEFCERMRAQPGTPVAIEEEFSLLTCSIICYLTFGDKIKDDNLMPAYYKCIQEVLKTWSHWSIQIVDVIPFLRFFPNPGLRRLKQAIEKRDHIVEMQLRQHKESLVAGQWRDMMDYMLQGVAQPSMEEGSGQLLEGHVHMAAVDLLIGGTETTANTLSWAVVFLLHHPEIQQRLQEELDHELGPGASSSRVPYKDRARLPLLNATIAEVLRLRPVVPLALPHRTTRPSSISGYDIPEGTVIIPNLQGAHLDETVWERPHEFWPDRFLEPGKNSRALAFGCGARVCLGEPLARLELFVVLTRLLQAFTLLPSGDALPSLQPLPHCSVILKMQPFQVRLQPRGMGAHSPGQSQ
Description: Proceeding using methods similar to those described in Biological Example 11, the percent inhibition at 100 nM was measured.
This assay was used to determine compound activity against Cyp21 enzyme. Human HEK 293-Cyp21 stable transfected cells (maintained in complete growth media DMEM+10% FBS, supplemented with 125 ug/mL Hygromycin) were seeded in a 96-well plate at 20,000 cells/well/100 uL in DMEM plus 10% FBS and allowed to attach overnight. The next day, 20 μL medium was carefully removed and 10 μL of 10× pre-made compounds in DMEM+10% FBS+10% methanol was transferred to the wells to final concentrations of 1000, 100, 10, 1, or 0.1 nM. Mock treatment was 1% methanol in growth media and the cells were left at 37° C., 5% CO2 for 5 hr. After the incubation, 10 μL of substrate progesterone (Sigma) was added to the wells to make a final concentration of 10 μM. The cells were incubated the cells at 37° C. for 20 hr. At the end of incubation, 90 μL of conditioned media was removed to measure DOC level by ELISA.
Preparation of the DOC ELISA: 100 μL of coating buffer (0.025M PBS pH 7.4) containing 200 ng/mL DOC-3-carboxymethyloxime-BSA (Steraloids. inc, Cat#3469-000) was added to each well of a 96-well plate and incubated overnight at 4° C. The next day, the plates were washed twice with 250 μl of wash solution (0.015M PBS pH 7.4 containing 0.05% Tween 20). After being washed, the wells were blocked with 250 μL blocking buffer (3% BSA in 0.025M PBS, pH 7.4) at 37° C. for 2 h. The plates were washed again 3 times as before, and then 90 μL of sample /standards (prepared in complete growth media) was added into the appropriate wells followed by 10 μL of antibody solution (1:450 rabbit anti-DOC in 0.6% BSA/PBS). The plates were incubated at room temperature for 2 h on a shaker. The contents of the wells were removed and the plate was washed 4 times. After the final wash, 100 μL of secondary antibody (1:12000 HRP-goat-anti-rabbit IgG conjugate 0.6% BSA/PBS) was added into each well. The plate was incubated at 30° C. for 45 min. The plate was washed again 4 times and 100 μL of TMB substrate solution was added to each well. The plate was incubated at room temperature for 10 min. 100 μL of stop solution was added to each well and the optical density was read at 450 nm.
The mean absorbance value for each sample was used to determine the corresponding concentration from the standard curve. Data was analyzed with “log(antagonist) vs response variable slope” under “non-linear regression analysis” using Prism5 software.

CYP17 (H295R cells) = target: T3, CYP17 (H295R cells) (Homo sapiens, UniProt P05093); assay: CYP17 cellular assay (IC50), testosterone in H295R cells (Biological Example 7); type: cell-based; settings: H295R cells, testosterone; read-out: CYP17 cellular assay IC50 (Biological Example No. 7)
T3 construct: endogenous in cells; host or cells: H295R cells
T3 sequence (P05093 1-508): T1 sequence (P05093 1-508)
Outline: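 H295R cells cultured 24 h, then exposed to compound at 100, 10, 1, 0.1 nM final in serum-free DMEM/F-12 with ITS+ and 0.1% methanol for 24 h at 37 °C. Medium testosterone measured by ELISA and plotted against compound concentration.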

[7] = target: T1, CYP17 (human testicular microsome); assay: CYP17 enzymatic assay (% inhibition at 1 nM) (Biological Example 12); type: biochemical; settings: compound at 1 nM, read-out: CYP17 enzymatic assay % inhibition at 1 nM (Biological Example No. 12)
[8] = 10 nM compound, DHEA by ELISA, read-out: Biological Example No. 5: CYP17 percent inhibition at 10 nM (version 1)
[9] = human testicular microsome, DHEA by ELISA, read-out: Biological Example No. 4: CYP17 enzymatic assay IC50
[10] = 100 nM compound, read-out: Biological Example No. 10: CYP21-HEK293 percent inhibition at 100 nM
[11] = compound at 100 nM, read-out: CYP21-HEK293 enzymatic assay % inhibition at 100 nM (Biological Example No. 10)

| SMILES | half-life at 1 μM [1] | inhibition at 0.01 µM [2, 8] | IC50 [3, 9] | other results |
| --- | --- | --- | --- | --- |
| CCCOc1cncc(C2=CC[C@H]3[C@@H]4CCN5CCCCC[C@]5(C)[C@H]4CC[C@]23C)c1 [Compound 46, (11aR,13aS)-11a,13a-dimethyl-1-(5-propoxypyridin-3-yl)-3a,3b,4,5,7,8,9,10,11,11a,11b,12,13,13a-tetradecahydro-3H-azepino[2,1-a]cyclopenta[f]isoquinoline] | 10 to 60 min | 50 to 80% |  |  |
| CCc1cncc(C2=CC[C@H]3[C@@H]4CCN5CCCCC[C@]5(C)[C@H]4CC[C@]23C)c1 [Compound 48, (11aR,13aS)-1-(5-ethylpyridin-3-yl)-11a,13a-dimethyl-3a,3b,4,5,7,8,9,10,11,11a,11b,12,13,13a-tetradecahydro-3H-azepino[2,1-a]cyclopenta[f]isoquinoline] | 1 to 10 min | 1 to 50% |  |  |
| Cc1cncc(C2=CC[C@H]3[C@@H]4CC(O)C5CCCC[C@]5(C)[C@H]4CC[C@]23C)c1 (stereo partly drawn) [Compound 70, (10R,13S)-10,13-dimethyl-17-(5-methylpyridin-3-yl)-2,3,4,5,6,7,8,9,10,11,12,13,14,15-tetradecahydro-1H-cyclopenta[a]phenanthren-6-ol] | 1 to 10 min |  | < 11 nM |  |
| Cc1cncc(C2=CC[C@H]3[C@@H]4CC(=O)C5CCCC[C@]5(C)[C@H]4CC[C@]23C)c1 (stereo partly drawn) [Compound 71, (10R,13S)-10,13-dimethyl-17-(5-methylpyridin-3-yl)-2,3,4,5,7,8,9,11,12,13,14,15-dodecahydro-1H-cyclopenta[a]phenanthren-6(10H)-one] | 1 to 10 min |  | < 11 nM |  |
| COc1cncc(C2=CC[C@H]3[C@@H]4CC(=O)C5CCCC[C@]5(C)[C@H]4CC[C@]23C)c1 (stereo partly drawn) [Compound 72, (10R,13S)-17-(5-methoxypyridin-3-yl)-10,13-dimethyl-2,3,4,5,7,8,9,11,12,13,14,15-dodecahydro-1H-cyclopenta[a]phenanthren-6(10H)-one] | 1 to 10 min |  | < 11 nM |  |
| C[C@]12CC[C@H]3[C@@H](CC[C@H]4CC(=O)CC[C@@]43C)C1=CC=C2c1cccnc1 [Compound 164, (5S,8R,9S,10S,13S)-10,13-dimethyl-17-(pyridin-3-yl)-4,5,6,7,8,9,10,11,12,13-decahydro-1H-cyclopenta[a]phenanthren-3(2H)-one] |  | > 80% | < 11 nM | half-life at 1 μM [4]: 1 to 50 min; Biological Example No. 9: CYP11B percent inhibition at 100 nM [5]: U (U means the compound had a percent inhibition of greater than or equal to 32%); inhibition at 0.1 µM [6, 10]: ≥ 30% |
| C[C@]12CC[C@H]3[C@@H](CC[C@H]4CC(=O)CC[C@@]43C)C1=CC=C2n1ccnc1 [Compound 171] |  | > 80% |  | half-life at 1 μM [4]: 1 to 50 min; Biological Example No. 9: CYP11B percent inhibition at 100 nM [5]: T (T means the compound had a percent inhibition of less than 32% when tested at 100 nM); inhibition at 0.1 µM [6, 10]: < 30%; IC50 [3]: < 11 nM |
| C[C@]12CC[C@H]3[C@@H](CC[C@H]4CC(=O)NCC[C@@]43C)C1=CC=C2n1ccnc1 [Compound 447, (5aS,5bS,7aS,10bR,12aS)-8-(1H-imidazol-1-yl)-5a,7a-dimethyl-3,4,5,5a,5b,6,7,7a,10b,11,12,12a-dodecahydrocyclopenta[5,6]naphtho[1,2-d]azepin-2(1H)-one] |  |  |  | half-life at 1 μM [4]: 1 to 50 min; CYP11B enzymatic assay % inhibition at 100 nM (Biological Example No. 9) [5]: na (“na” means the compound was not active under the conditions tested); inhibition at 0.1 µM [6, 11]: ≥ 30%; inhibition at 0.01 µM ([2]; compound at 10 nM, read-out: CYP17 enzymatic assay % inhibition at 10 nM (Biological Example No. 5)): > 80%; IC50 ([3]; human testicular microsome, read-out: CYP17 enzymatic assay IC50 (Biological Example No. 4)): < 11 nM |
| Cc1ccncc1C1=CC[C@H]2[C@@H]3CC[C@H]4CC(=O)NCC[C@]4(C)[C@H]3CC[C@]12C [Compound 462, (5aS,5bS,7aS,10aS,10bR,12aS)-5a,7a-dimethyl-8-(4-methylpyridin-3-yl)-3,4,5,5a,5b,6,7,7a,10,10a,10b,11,12,12a-tetradecahydrocyclopenta[5,6]naphtho[1,2-d]azepin-2(1H)-one] |  |  |  | CYP11B enzymatic assay % inhibition at 100 nM (Biological Example No. 9) [5]: T (T means the compound had a percent inhibition of less than 32% when tested at 100 nM); IC50 (CYP17 (H295R cells)): < 15 nM; inhibition at 0.1 µM [6, 11]: < 30%; inhibition at 0.001 µM [7]: 10 to 50% |

More lines, main results first:

| half-life at 1 μM [1] | inhibition at 0.01 µM [2, 8] | SMILES | IC50 [3, 9] | other results |
| --- | --- | --- | --- | --- |
| 1 to 10 min | > 80% | C[C@]12CCNC(=O)C=C1CC[C@@H]1[C@@H]2CC[C@]2(C)C(n3ncnn3)=CC[C@@H]12 [Compound 63] |  |  |
| 1 to 10 min | 1 to 50% | Cc1cncc(C2=CC[C@H]3[C@@H]4CC[C@H]5COC(=O)CC[C@]5(C)[C@H]4CC[C@]23C)c1 [Compound 119, (5aR,5bS,7aS,10aS,10bR,12aR)-5a,7a-dimethyl-8-(5-methylpyridin-3-yl)-5,5a,5b,6,7,7a,10,10a,10b,11,12,12a-dodecahydro-1H-cyclopenta[5,6]naphtho[2,1-c]oxepin-3(4H)-one] |  |  |
